Data published in ChEMBL document CHEMBL6096670, “Design, synthesis and biological evaluation of novel β-carbolines as antitumor agents via targeting autophagy in colorectal cancer” (Eur J Med Chem, 2025).
pIC50: −log10 of the molar value. Calls of active or inactive are those of the source. The rule behind the calls is not given here.

Columns and labels:
[1] = Toxicity in female BALB/c mouse implanted with mouse CT26 cells assessed as change in kidney morphology at 1 to 2 mg/kg administrated once every 3 days for 18 days by H&E staining based analysis; type: organism-based; settings: in vivo, 432 h, dose 1-2 mg/kg, time 18 day
[2] = system: HCT-116; experiment: Induction of apoptosis in human HCT-116 cells assessed as effect on cleaved caspase-3 expression level at 0.5 to 2 uM incubated for 24 hrs by Western blot analysis; type: functional, cell-based; settings: dose 0.5-2 µM
[3] = system: CT26; experiment: Antitumor activity against mouse CT26 cells implanted in female BALB/c mouse assessed as reduction in tumor volume at 1 to 2 mg/kg administrated once every 3 days for 18 days; type: functional, organism-based; settings: dose 1-2 mg/kg, time 18.0 day
[4] = system: HCT-116; experiment: Induction of apoptosis in human HCT-116 assessed as necrotic cells at 2 uM pretreated with Z-VAD-FMK for 30 mins followed by compound addition and measured after 24 hrs by Annexin V-FITC/PI double staining based flow cytometry (reference value: 0.84%); type: functional
[5] = system: HCT-116; experiment: Induction of autophagy in ATG5 knockout human HCT-116 cells assessed as increase in LC3-II expression at 1 to 2 uM incubated for 24 hrs by Western blot analysis; type: functional, cell-based; settings: dose 1-2 µM
[6] = Toxicity in female BALB/c mouse implanted with mouse CT26 cells assessed as change in body weight at 1 to 2 mg/kg administrated once every 3 days for 18 days; type: organism-based; settings: in vivo, 432 h, dose 1-2 mg/kg, time 18 day
[7] = system: CWR22R; experiment: Antiproliferative activity against human 22Rv1 cells assessed as inhibition of cell growth incubated for 48 hrs by MTT assay; type: functional, cell-based; settings: 22Rv1, 48 h
[8] = system: HCT-116; experiment: Antiproliferative activity against Bax knockout human HCT-116 cells assessed as inhibition of cell viability incubated for 24 hrs by CCK8 assay; type: functional, cell-based; settings: HCT-116, 24 h
[9] = system: HCT-116; experiment: Induction of apoptosis in human HCT-116 assessed as early apoptotic cells at 2 uM incubated for 24 hrs Annexin V FITC/PI double staining based flow cytometry (reference value: 1.07 %); type: functional
[10] = system: HCT-116; experiment: Induction of autophagy in ATG7 knockout human HCT-116 cells assessed as increase in LC3-II expression at 1 to 2 uM incubated for 24 hrs by Western blot analysis; type: functional, cell-based; settings: dose 1-2 µM
[11] = system: HCT-116; experiment: Induction of autophagy in human HCT-116 cells transfected with tandem mRFP-GFP-LC3 plasmid assessed as reduction in p62 expression incubated for 24 hrs by Western blot analysis; type: functional, cell-based; settings: dose 0.5-20 µM
[12] = Toxicity in female BALB/c mouse implanted with mouse CT26 cells assessed as change in heart morphology at 1 to 2 mg/kg administrated once every 3 days for 18 days by H&E staining based analysis; type: organism-based; settings: in vivo, 432 h, dose 1-2 mg/kg, time 18 day
[13] = system: HCT-116; experiment: Induction of apoptosis in human HCT-116 assessed as necrotic cells at 2 uM incubated for 24 hrs Annexin V FITC/PI double staining based flow cytometry (reference value: 0.94 %); type: functional
[14] = system: HCT-116; experiment: Effect on PARP expression level in Bax knockout human HCT-116 cells at 1 to 2 uM incubated for 24 hrs by Western blot analysis; type: functional, cell-based; settings: dose 1-2 µM
[15] = system: BGC-823; experiment: Antiproliferative activity against human BGC-823 cells assessed as inhibition of cell growth incubated for 48 hrs by MTT assay; type: functional, cell-based; settings: BGC-823, 48 h
[16] = system: HCT-116; experiment: Inhibition of colony formation in wildtype human HCT-116 cells assessed as reduction in number of colonies at 1 to 4 uM measured after 24 hrs by crystal violet staining based analysis; type: functional, cell-based; settings: dose 1-4 µM
[17] = system: HCT-116; experiment: Induction of apoptosis in human HCT-116 assessed as viable cells at 2 uM incubated for 24 hrs Annexin V FITC/PI double staining based flow cytometry (Rvb =90.0%); type: functional; settings: read-out: Activity
[18] = system: CT26; experiment: Antitumor activity against mouse CT26 cells implanted in female BALB/c mouse assessed as reduction in tumor weight at 2 mg/kg administrated once every 3 days for 18 days relative to control; type: functional; set-up: scale not given: the % may be the effect or the level left; settings: time 18 day
[19] = system: HCT-116; experiment: Antiproliferative activity against ATG7 knockout human HCT-116 cells assessed as inhibition of cell viability incubated for 24 hrs by CCK8 assay; type: functional, cell-based; settings: HCT-116, 24 h
[20] = system: CT26; experiment: Antitumor activity against mouse CT26 cells implanted in female BALB/c mouse assessed as reduction in tumor volume at 2 mg/kg administrated once every 3 days for 18 days; type: functional, organism-based; settings: time 18.0 day
[21] = system: HCT-116; experiment: Effect on C-PARP expression level in Bax knockout human HCT-116 cells at 1 to 2 uM incubated for 24 hrs by Western blot analysis; type: functional, cell-based; settings: dose 1-2 µM
[22] = system: HCT-116; experiment: Induction of apoptosis in human HCT-116 cells assessed as effect on cleaved caspase-8 expression level at 0.5 to 2 uM incubated for 24 hrs by Western blot analysis; type: functional, cell-based; settings: dose 0.5-2 µM
[23] = system: HCT-116; experiment: Effect on PARP expression level in p53 knockout human HCT-116 cells at 1 to 2 uM incubated for 24 hrs by Western blot analysis; type: functional, cell-based; settings: dose 1-2 µM
[24] = system: HCT-116; experiment: Induction of morphological changes in human HCT-116 cells assessed as suppression of cell growth at 0.5 to 2 uM by microscopic analysis; type: functional, cell-based; settings: dose 0.5-2 µM
[25] = system: HCT-116; experiment: Induction of apoptosis in human HCT-116 assessed as early apoptotic cells at 1 uM incubated for 24 hrs Annexin V FITC/PI double staining based flow cytometry (reference value: 1.07 %); type: functional
[26] = system: HepG2; experiment: Antiproliferative activity against human HepG2 cells assessed as inhibition of cell growth incubated for 48 hrs by MTT assay; type: functional, cell-based; settings: HepG2, 48 h
[27] = system: HCT-116; experiment: Effect on cleaved caspase 3 expression level in Bax knockout human HCT-116 cells at 1 to 2 uM incubated for 24 hrs by Western blot analysis; type: functional, cell-based; settings: dose 1-2 µM
[28] = system: HCT-116; experiment: Inhibition of colony formation in ATG7 knockout human HCT-116 cells assessed as reduction in number of colonies at 1 to 4 uM measured after 24 hrs by crystal violet staining based analysis; type: functional, cell-based; settings: dose 1-4 µM
[29] = system: HCT-116; experiment: Induction of apoptosis in human HCT-116 assessed as late apoptotic cells at 2 uM incubated for 24 hrs Annexin V FITC/PI double staining based flow cytometry (reference value: 8.02 %); type: functional
[30] = system: HCT-116; experiment: Effect on C-PARP expression level in p53 knockout human HCT-116 cells at 1 to 2 uM incubated for 24 hrs by Western blot analysis; type: functional, cell-based; settings: dose 1-2 µM
[31] = system: 786-0; experiment: Antiproliferative activity against human 786-0 cells assessed as inhibition of cell growth incubated for 48 hrs by MTT assay; type: functional, cell-based; settings: 786-0, 48 h
[32] = system: HCT-116; experiment: Induction of apoptosis in human HCT-116 assessed as viable cells at 1 uM incubated for 24 hrs Annexin V FITC/PI double staining based flow cytometry (Rvb =90.0%); type: functional; settings: read-out: Activity
[33] = system: HCT-116; experiment: Antiproliferative activity against p53 knockout human HCT-116 cells assessed as inhibition of cell viability incubated for 24 hrs by CCK8 assay; type: functional, cell-based; settings: HCT-116, 24 h
[34] = system: HCT-116; experiment: Induction of apoptosis in human HCT-116 assessed as necrotic cells at 1 uM pretreated with Z-VAD-FMK for 30 mins followed by compound addition and measured after 24 hrs by Annexin V-FITC/PI double staining based flow cytometry (reference value: 0.84 %); type: functional
[35] = system: HT-29; experiment: Antiproliferative activity against human HT-29 cells assessed as inhibition of cell growth incubated for 48 hrs by MTT assay; type: functional, cell-based; settings: HT-29, 48 h

## CCN(CC)CCCNCc1cc2c3ccccc3n(CCCc3ccccc3)c2c(CNCCCN(CC)CC)n1
[1]
  Activity: Non-toxic
[2]
  Activity: inactive
[3]
  Activity: Active
[4]
  Activity: 1.8%
[5]
  Activity: inactive
[6]
  Activity: Non-toxic
[7]
  pIC50: 5.39
[8]
  pIC50: 5.56
[9]
  Activity: 2.78%
[10]
  Activity: inactive
[11]
  Activity: Dose-dependent-effect
[12]
  Activity: Non-toxic
[13]
  Activity: 2.86%
[14]
  Activity: inactive
[15]
  pIC50: 5.42
[16]
  inhibition: Active
[17]
  viability at 2 µM: 80.5%
[18]
  Activity: 87.3%
[19]
  pIC50: 5.19
[20]
  Activity: Active; Stronger Than 4Mg/Kg Of Cisplatin Treatment Group
[21]
  Activity: inactive
[22]
  Activity: inactive
[23]
  Activity: inactive
[24]
  Activity: Active
[25]
  Activity: 2.19%
[26]
  pIC50: 5.34
[27]
  Activity: inactive
[28]
  inhibition: Active; Insignificant Decrease In Number Of Colonies Observed
[29]
  Activity: 13.9%
[30]
  Activity: inactive
[31]
  pIC50: 5.41
[32]
  viability at 1 µM: 84.6%
[33]
  pIC50: 5.61
[34]
  Activity: 2.2%
[35]
  pIC50: 5.58
